Test results taken from US11428693B2, “Method of high throughput screening of chemical compounds suppressing nucleolar hypertrophy” (Baylor College of Medicine, priority 2017, dated 2022).
Like-named read-outs stand apart in the source and are kept apart here. Where a SMILES comes first, the peptide text is derived from it. The star is where a group is joined. Cbz = O=C(OCc1ccccc1)*

Assays:
[1] = tested on: HCT-15 cells; assay: GFP-L7a expression in treated HCT-15 cells (FIG. 8); assay type: cell-based, human
From the text: FIG. 8 contains pictures of cells. HCT-15 cells, grown on 35 mm glass bottom dishes, were transfected with the GFP-L7a vector pCMV6-AC-GFP to express GFP-L7a protein.

[2] = tested on: HCT-15 cells
Method: (§1) To further assess protein biosynthesis in the perinuclear area and ribosome biogenesis, several chemical agents were tested on cellular growth and survival.
(§2) All the tested compounds were dissolved in dimethylsulfoxide (DMSO).
(§3) The human colorectal adenocarcinoma cell lines: HCT-15 was purchased from ATCC. Cultures of cells maintained in DMEM/F12 medium containing 10% FBS and antibiotics, at 37° C. with 5% CO2. For cell treatments, cells were grown at 80% confluence in complete medium.

[3] = tested on: HCT-15 cells; assay: Cell survival assay using MTT (toxicity study, FIG. 7); settings: for cellular proliferation: prolonged 24-hour treatments; for toxicity (cell survival, MTT): at the applied concentrations, compounds dissolved in DMSO
Method: as §1, §2, §3

[4] = HCT-15 cells transfected with GFP-L7a vector pCMV6-AC-GFP

Structure (SMILES)	nucleolar hypertrophy (GFP-L7a) [1, 4]	perinuclear protein synthesis (GFP-L7a) [1, 4]	toxicity (cell survival, MTT) [2]	cellular proliferation [3]	perinuclear protein synthesis (GFP-L7a) [1]	toxicity (cell survival, MTT) [3]
C=C(C)[C@H]1Cc2c(ccc3c2O[C@@H]2COc4cc(OC)c(OC)cc4[C@@H]2C3=O)O1 [Rotenone, (2R,6aS,12a5)-1,2,6,6a,12,12a-hexahydro-2-isopropenyl-8,9-dimethoxychromeno[3,4-b]furo(2,3-h)chromen-6-one]	induced	induced	no toxicity	inhibited cellular proliferation	–	–
CC(C)n1nc(-c2cc3cc(O)ccc3[nH]2)c2c(N)ncnc21 [pp242, 2-(4-amino-1-isopropyl-1H-pyrazolo[3,4-d]pyrimidin-3-yl)-1H-indol-5-ol]	–	–	no toxicity	–	induced	–
COC1=C2C[C@@H](C)C[C@H](OC)[C@H](O)[C@@H](C)/C=C(\C)[C@H](OC(N)=O)[C@@H](OC)/C=C\C=C(/C)C(=O)NC(=CC1=O)C2=O [Geldanamycin, (4E,6Z,8S,9S,10E,12S,13R,14S,16R)-13-hydroxy-8,14,19-trimethoxy-4,10,12,16-tetramethyl-3,20,22-trioxo-2-azabicyclo[16.3.1]docosa-1(21),4,6,10,18-pentaen-9-yl carbamate]	induced	induced	–	inhibited cellular proliferation	–	no toxicity
O=C1Nc2cc(Br)ccc2/C1=C1/Nc2ccccc2/C1=N\O [Bio, (2′Z,3′E)-6-Bromoindirubin-3′-oxime]	induced	induced	more toxic than the other compounds	–	–	–
CC(C)C[C@@H](C=O)NC(=O)[C@H](CC(C)C)NC(=O)[C@H](CC(C)C)NC(=O)OCc1ccccc1 [MG132, Benzyl N-[(2S)-4-methyl-1-[[(2S)-4-methyl-1-[[(2S)-4-methyl-1-oxopentan-2-yl]amino]-1-oxopentan-2-yl]amino]-1-oxopentan-2-yl]carbamate] (Cbz-Leu-Leu-Leu-aldehyde)	induced	induced	–	inhibited cellular proliferation	–	no toxicity
CCc1cncnc1N1CCN(Cc2nc3cc(C(F)(F)F)ccc3[nH]2)CC1 [PF4708671, 2-((4-(5-Ethylpyrimidin-4-yl)piperazin-1-yl)methyl)-5-(trifluoromethyl)-1H-benzo[d]imidazole]	induced	induced	–	–	–	no toxicity
